Consider 32 sequences from the OligoGym collection.

The series concerns the target DGAT2. Conditions: ASO.

Values joined by “and” are separate entries in the source; they are usually repeats but may differ in a detail not shown here. Equal entries are not always repeated. After the bases stand the sugars from the 5' end (letter, count) and the backbone: PS all phosphorothioate, else s phosphorothioate and o phosphodiester by linkage. Methylation of C is not given here. e = 2'-O-(2-methoxyethyl) (MOE); d = 2'-deoxy (DNA)

Sequence “TTCGGACCCACTGTGACCTC (sugars e2 d13 e5, PS)” registered a target mRNA inhibition (HepG2, 0.12 µM) of 71%.

“ACTGGTCCTGCAGTTTCAGG (sugars e5 d10 e5, PS)” came in with a target mRNA inhibition (HepG2, 0.12 µM) of 55%.

Turning to “GGGTTCTTGTCCTGGTCCCA (sugars e5 d10 e5, PS)”, the target mRNA inhibition runs as follows: (HepG2, 2.5 µM) 79% and 66%; (HepG2, 10 µM) 90%.

The sequence “CCTCATCTCAGTGCCCAAAG (sugars e5 d10 e5, PS)” showed a target mRNA inhibition (HepG2, 2.5 µM) of 25% and a target mRNA inhibition (HepG2, 10 µM) of 63%.

Consider “AGTCAAACCTAGGTTCAGAC (sugars e5 d10 e5, PS)”, for which the target mRNA inhibition by setting is: (HepG2, 2.5 µM) 81%; (HepG2, 10 µM) 55%.

Regarding “ACACGCAGACCAGGACAGCT (sugars e5 d10 e5, PS)”, the target mRNA inhibition (HepG2, 0.12 µM) came out at 46%.

“AGCATTGCCACTCCCATTCT (sugars e3 d14 e3, PS)” registered a target mRNA inhibition (HepG2, 0.12 µM) of 67%.

For the sequence “TTACTCCACCTAGCTCATGG (sugars e5 d10 e5, PS)”, the target mRNA inhibition (HepG2, 0.12 µM) came out at 6%.

Regarding “TACCTTATCTTTGTCCACAT (sugars e5 d10 e5, PS)”, the target mRNA inhibition (HepG2, 10 µM) is 78% and 91%.

“GCGATTCACTGAGGACCTCA (sugars e5 d10 e5, PS)”: the target mRNA inhibition came to 74% (HepG2, 2.5 µM) and 86% (HepG2, 10 µM).

Turning to “AAAGGAGTTTGTGTTTCCCA (sugars e5 d10 e5, PS)”, the target mRNA inhibition by setting is: (HepG2, 2.5 µM) 73%; (HepG2, 10 µM) 91%.

Sequence “TTCACCAGCTGGATGGGAAA (sugars e5 d10 e5, PS)” displayed a target mRNA inhibition (HepG2, 0.12 µM) of 26%.

For “GTTCTTCCAACCAGTGTTTG (sugars e5 d10 e5, PS)”, the target mRNA inhibition runs as follows: (HepG2, 2.5 µM) 47%; (HepG2, 10 µM) 81%.

For “AGGTTGTGTGTCTTCACCAG (sugars e2 d13 e5, PS)”, the target mRNA inhibition (HepG2, 0.12 µM) was 61%.

The sequence “TAAGGAAAACTTAGGCATGC (sugars e5 d10 e5, PS)” yielded a target mRNA inhibition (HepG2, 2.5 µM) of 75% and a target mRNA inhibition (HepG2, 10 µM) of 69%.

The sequence “TTCACCTCCAGGACCTCAGT (sugars e5 d10 e5, PS)” returned a target mRNA inhibition (HepG2, 0.12 µM) of 46%.

Take “GTCCTCCTTAGCTTTAATCC (sugars e5 d10 e5, PS)”: the target mRNA inhibition was determined as 62% (HepG2, 2.5 µM) and 85% (HepG2, 10 µM).

Turning to “ACCAGGGCCTCCATGTACAT (sugars e3 d14 e3, PS)”, the target mRNA inhibition (HepG2, 0.12 µM) came out at 84%; the target mRNA inhibition (HepG2, 2.5 µM) was 27% and 24%; the target mRNA inhibition (HepG2, 10 µM) is 63% and 50%; the target mRNA inhibition (HepG2, 20 µM) was determined as 26%.

Consider “CAGGTCTATGCTGCAGTCAT (sugars e5 d10 e5, PS)”, for which the target mRNA inhibition runs as follows: (HepG2, 2.5 µM) 53% and 45%; (HepG2, 10 µM) 89% and 82%.

As for “GCACTTGATCTGGGACCCAA (sugars e5 d10 e5, PS)”, the target mRNA inhibition (HepG2, 2.5 µM) was 69% and 73%; the target mRNA inhibition (HepG2, 10 µM) was 95% and 92%.

“CCCGGAGTAGGCGGCTATGA (sugars e5 d10 e5, PS)”: the target mRNA inhibition is, setting by setting: (HepG2, 2.5 µM) 60%; (HepG2, 10 µM) 89%.

Turning to “GACCTTGGGCAAGTTACCTA (sugars e5 d10 e5, PS)”, the target mRNA inhibition by setting is: (HepG2, 2.5 µM) 50% and 71%; (HepG2, 10 µM) 89% and 94%.

“ATCCTGCCAGAGTTATCCTC (sugars e5 d10 e5, PS)”: the target mRNA inhibition (HepG2, 2.5 µM) turned out to be 86% and the target mRNA inhibition (HepG2, 10 µM) amounted to 77%.

Regarding “GTCTCTCATAATTGCCAGTT (sugars e5 d10 e5, PS)”, the target mRNA inhibition (HepG2, 2.5 µM) was 53% and 66%; the target mRNA inhibition (HepG2, 10 µM) was 83% and 87%.

For “CTTAGGCATGCTTCCTCCCA (sugars e5 d10 e5, PS)”, the target mRNA inhibition (HepG2, 2.5 µM) amounted to 57% and the target mRNA inhibition (HepG2, 10 µM) is 84%.

Turning to “AGGCATGGAGCTCAGAGACT (sugars e5 d10 e5, PS)”, the target mRNA inhibition is 69% and 83% (HepG2, 0.12 µM); 39% (HepG2, 2.5 µM); 84% (HepG2, 10 µM); 51% (HepG2, 20 µM).

On to “AAGCCTGGATGGTGGTTGCA (sugars e5 d10 e5, PS)”, for which the target mRNA inhibition runs as follows: (HepG2, 2.5 µM) 82% and 66%; (HepG2, 10 µM) 91% and 82%.

Turning to “AATGCCAATGCCTAGGTCAC (sugars e5 d10 e5, PS)”, the target mRNA inhibition came to 72% (HepG2, 2.5 µM) and 90% (HepG2, 10 µM).

The sequence “GGAGTAGGGCACCAGCCCCC (sugars e5 d10 e5, PS)” gave a target mRNA inhibition (HepG2, 0.12 µM) of 17%.

Regarding “TGCTGCTCAGAAGGCCAGGC (sugars e5 d10 e5, PS)”, the target mRNA inhibition (HepG2, 0.12 µM) was 42%.

For “GGAGCAGGCCTCGGGAAGCA (sugars e5 d10 e5, PS)”, the target mRNA inhibition runs as follows: (HepG2, 2.5 µM) 38%; (HepG2, 10 µM) 85%.

For “TGACCAGGAAGGCCACACCT (sugars e5 d10 e5, PS)”, the target mRNA inhibition (HepG2, 0.12 µM) came out at 15%.
